From patent publication US20090280106A1, “Pituitary adenylate cyclase acivating peptide (pacap) receptor (vpac2) agonists and their pharmacological methods of use” (Bayer Pharmaceuticals Corporation, priority 2005, published 2009)

Experiments:
DPPIV [1] = molecular target: T1, DPPIV (Homo sapiens, UniProt P27487); details: cited from earlier work
DPPIV [2] = molecular target: T1, DPPIV; details: longer time points
Description: The formulations described in Example 4 are placed in constant stability chamber. Peptides are also analyzed for stability to degradation in solutions of DPPIV and in plasma. Samples are removed periodically for analysis by capillary electrophoresis, mass spectrometry, Edman degradation, ELISA, and assays of peptide activity, which are sensitive methods to detect degradation of peptide. The area of various peaks is summed and the area for peak of the parent peptide is divided by the total peak area. The quotient is the % purity. Since there are impurities present in the fresh peptide, the purity change is normalized by dividing the purity at different time point by the initial purity. For stability to DPPIV and plasma, peptides at 20 pmol/μl were incubated at 37° C. in the presence of 300 pM DPPIV in 100 mM HEPES, pH 7.4. At various timepoints, the reaction (2 μl aliquot) is terminated by addition of 1 μM DPPIV inhibitor and freezing. For MALDI mass spectrometric analysis, T=0 hr, 1 hr, 5 hr, and 24 hr timepoints are evaluated. The results are plotted as percent intact peptide or peptide derivative as compared to degradation products.

T1 sequence (P27487 whole entry, species assumed): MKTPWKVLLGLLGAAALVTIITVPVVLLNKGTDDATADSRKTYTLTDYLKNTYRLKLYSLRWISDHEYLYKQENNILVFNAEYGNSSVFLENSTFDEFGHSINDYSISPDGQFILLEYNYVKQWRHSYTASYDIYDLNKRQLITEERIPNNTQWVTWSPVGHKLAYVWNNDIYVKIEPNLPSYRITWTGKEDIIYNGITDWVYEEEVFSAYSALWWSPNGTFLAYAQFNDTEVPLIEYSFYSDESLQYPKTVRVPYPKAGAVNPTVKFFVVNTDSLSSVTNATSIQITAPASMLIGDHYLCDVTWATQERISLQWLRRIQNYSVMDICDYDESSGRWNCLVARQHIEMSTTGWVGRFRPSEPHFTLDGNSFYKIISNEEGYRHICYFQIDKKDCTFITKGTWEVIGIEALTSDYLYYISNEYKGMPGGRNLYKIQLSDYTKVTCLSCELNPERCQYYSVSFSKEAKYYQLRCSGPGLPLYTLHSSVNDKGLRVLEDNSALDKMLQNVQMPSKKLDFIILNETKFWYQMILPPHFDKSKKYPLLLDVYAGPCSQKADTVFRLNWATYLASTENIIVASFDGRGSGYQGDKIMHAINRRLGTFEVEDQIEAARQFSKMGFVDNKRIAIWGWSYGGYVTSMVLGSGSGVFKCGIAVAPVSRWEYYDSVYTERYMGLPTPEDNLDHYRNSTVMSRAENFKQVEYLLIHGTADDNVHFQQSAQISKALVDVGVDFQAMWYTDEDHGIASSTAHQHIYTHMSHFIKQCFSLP

Row | Structure (SMILES) | cleavage by DPPIV as reported (Zhu, et al., J. Biol. Chem. 278: 22418-22423, 2003) (DPPIV [1]) | cleavage by DPPIV (DPPIV [2])
1 | CC[C@H](C)[C@H](NC(=O)CNC(=O)[C@H](CC(=O)O)NC(=O)[C@H](CO)NC(=O)[C@@H](N)Cc1cnc[nH]1)C(=O)N[C@@H](Cc1ccccc1)C(=O)N[C@H](C(=O)N[C@@H](CC(=O)O)C(=O)N[C@@H](CO)C(=O)N[C@@H](Cc1ccc(O)cc1)C(=O)N[C@@H](CO)C(=O)N[C@@H](CCCNC(=N)N)C(=O)N[C@@H](Cc1ccc(O)cc1)C(=O)N[C@@H](CCCNC(=N)N)C(=O)N[C@@H](CCCCN)C(=O)N[C@@H](CCC(N)=O)C(=O)N[C@@H](CCSC)C(=O)N[C@@H](C)C(=O)N[C@H](C(=O)N[C@@H](CCCCN)C(=O)N[C@@H](CCCCN)C(=O)N[C@@H](Cc1ccc(O)cc1)C(=O)N[C@@H](CC(C)C)C(=O)N[C@@H](C)C(=O)N[C@@H](C)C(=O)N[C@H](C(=O)N[C@@H](CC(C)C)C(N)=O)C(C)C)C(C)C)[C@@H](C)O [PACAP27] | resistant to cleavage | cleaved at longer time points
2 | CC[C@H](C)[C@H](NC(=O)[C@H](CO)NC(=O)[C@H](CC(N)=O)NC(=O)[C@H](CC(C)C)NC(=O)[C@H](Cc1ccc(O)cc1)NC(=O)[C@H](CCCCN)NC(=O)[C@H](CCCCN)NC(=O)[C@@H](NC(=O)[C@H](C)NC(=O)[C@H](CCSC)NC(=O)[C@H](CCC(N)=O)NC(=O)[C@H](CCCCN)NC(=O)[C@H](CCCN=C(N)N)NC(=O)[C@H](CC(C)C)NC(=O)[C@H](CCCN=C(N)N)NC(=O)[C@@H](NC(=O)[C@H](Cc1ccc(O)cc1)NC(=O)[C@H](CC(N)=O)NC(=O)[C@H](CC(=O)O)NC(=O)[C@@H](NC(=O)[C@H](Cc1ccccc1)NC(=O)[C@@H](NC(=O)[C@H](C)NC(=O)[C@H](CC(=O)O)NC(=O)[C@H](CO)NC(=O)[C@@H](N)Cc1c[nH]cn1)C(C)C)[C@@H](C)O)[C@@H](C)O)C(C)C)C(=O)N[C@@H](CC(C)C)C(=O)N[C@@H](CC(N)=O)C(N)=O [VIP] | resistant to cleavage | cleaved at longer time points
